Converted amounts (≈) assume the structure as drawn.
The molecules below were run on S aureus A798 (assay: Minimal inhibitory concentration (MIC), microdilution method in cation-adjusted Mueller-Hinton Broth following NCCLS guidelines). Conditions: pH of test medium 7.2-7.3.
Format: cell-based
Experimental: These assays have been performed following the description given in “Methods for dilution Antimicrobial Susceptibility Tests for Bacteria that Grow Aerobically, 4th ed.; Approved standard: NCCLS Document M7-A4; National Committee for Clinical Laboratory Standards Villanova, Pa., USA, 1997”. Minimal inhibitory concentrations (MICs; mg/l) were determined in cation-adjusted Mueller-Hinton Broth by a microdilution method following NCCLS guidelines (National Committee for Clinical Laboratory Standards. Methods for Dilution Antimicrobial Susceptibility). The pH of the test medium was 7.2-7.3. All Example compounds were tested against several Gram positive and Gram negative bacteria.

| Compound | MIC [µg/mL] | MIC S aureus A798 [µg/mL] |
| --- | --- | --- |
| COc1ccc2nccc(N3CCCN(C(=O)[C@@H]4CN(c5ccc6c(c5)OCCO6)C(=O)O4)CC3)c2n1 [Example 109, (S)-3-(2,3-Dihydro-benzo[1,4]dioxin-6-yl)-5-[4-(6-methoxy-[1,5]naphthyridin-4-yl)-[1,4]diazepane-1-carbonyl]-oxazolidin-2-one] | ≤ 0.031 |  |
| COc1ccc2nccc(N3CC(N(C)C[C@@H]4CN(c5ccc6c(c5)OCO6)C(=O)O4)C3)c2n1 [Example 145, (R)-3-Benzo[1,3]dioxol-5-yl-5-({[1-(6-methoxy-[1,5]naphthyridin-4-yl)-azetidin-3-yl]-methyl-amino}-methyl)-oxazolidin-2-one] | 0.125 (≈ 0.27 µM) |  |
| COc1ccc2nccc(N3CCN(CC4CN(c5ccc(C(F)(F)F)cn5)C(=O)O4)CC3)c2n1 (racemic) [Example 44, (RS)-5-[4-(6-Methoxy-[1,5]naphthyridin-4-yl)-piperazin-1-ylmethyl]-3-(5-trifluoromethyl-pyridin-2-yl)-oxazolidin-2-one] | 0.5 (≈ 1.02 µM) |  |
| COc1ccc2nccc(N3CC(CNC(=O)[C@@H]4CN(c5ccc6c(c5)OCCO6)C(=O)O4)C3)c2n1 [Example 2, (S)-3-(2,3-Dihydro-benzo[1,4]dioxin-6-yl)-2-oxo-oxazolidine-5-carboxylic acid[1-(6-methoxy-[1,5]naphthyridin-4-yl)-azetidin-3-ylmethyl]-amide] |  | 4 (≈ 8.14 µM) |
| COc1ccc2ncnc(N3CCC(O)(CC4CN(c5ccc6c(c5)OCCO6)C(=O)O4)CC3)c2c1 (racemic) [Example 4, (RS)-3-(2,3-Dihydro-benzo[1,4]dioxin-6-yl)-5-[4-hydroxy-1-(6-methoxy-quinazolin-4-yl)-piperidin-4-ylmethyl]-oxazolidin-2-one] | ≤ 0.031 |  |
| COc1ccc2nccc(N3CC[C@@H](NC(=O)[C@@H]4CN(c5ccc6c(c5)OCCO6)C(=O)O4)C3)c2n1 [Example 61, (S)-3-(2,3-Dihydro-benzo[1,4]dioxin-6-yl)-2-oxo-oxazolidine-5-carboxylic acid [(R)-1-(6-methoxy-[1,5]naphthyridin-4-yl)-pyrrolidin-3-yl]-amide] | ≤ 0.031 |  |
| COc1ccc2nccc(N3CCCN(C[C@@H]4CN(c5ccc6c(c5)NC(=O)CO6)C(=O)O4)CC3)c2n1 [Example 105, 6-{(R)-5-[4-(6-Methoxy-[1,5]naphthyridin-4-yl)-[1,4]diazepan-1-ylmethyl]-2-oxo-oxazolidin-3-yl}-4H-benzo[1,4]oxazin-3-one] | ≤ 0.031 |  |
| COc1ccc2nccc(C3(O)CCN(CC4CN(c5ccc6c(c5)OCCO6)C(=O)O4)CC3)c2n1 (racemic) [Example 3, (RS)-3-(2,3-Dihydro-benzo[1,4]dioxin-6-yl)-5-[4-hydroxy-4-(6-methoxy-[1,5]naphthyridin-4-yl)-piperidin-1-ylmethyl]-oxazolidin-2-one] | ≤ 0.031 |  |
| COc1ccc2nccc(N3CC(N(C)C[C@@H]4CN(c5ccccc5)C(=O)O4)C3)c2n1 [Example 133, (R)-5-({[1-(6-Methoxy-[1,5]naphthyridin-4-yl)-azetidin-3-yl]-methyl-amino}-methyl)-3-phenyl-oxazolidin-2-one] | 2 (≈ 4.77 µM) |  |
| COc1ccc2nccc(N3CCN(C[C@@H]4CN(c5ccc(OC)c(C(F)(F)F)c5)C(=O)O4)CC3)c2n1 [Example 33, (R)-5-[4-(6-Methoxy-[1,5]naphthyridin-4-yl)-piperazin-1-ylmethyl]-3-(4-methoxy-3-trifluoromethyl-phenyl)-oxazolidin-2-one] | 4 (≈ 7.73 µM) |  |
| COc1ccc2nccc(N3CC(N(C)C[C@@H]4CN(c5ccc6ncsc6c5)C(=O)O4)C3)c2n1 [Example 144, (R)-3-Benzothiazol-6-yl-5-({[1-(6-methoxy-[1,5]naphthyridin-4-yl)-azetidin-3-yl]-methyl-amino}-methyl)-oxazolidin-2-one] | 0.063 (≈ 0.132 µM) |  |
| COc1ccc2nccc(N3CCN(C[C@@H]4CN(c5cccc(OC(F)(F)F)c5)C(=O)O4)CC3)c2n1 [Example 10, (R)-5-[4-(6-Methoxy-[1,5]naphthyridin-4-yl)-piperazin-1-ylmethyl]-3-(3-trifluoromethoxy-phenyl)-oxazolidin-2-one] | 0.25 (≈ 0.497 µM) |  |
| COc1ccc2nccc(N3CCN(C[C@@H]4CN(c5ccc(F)c(F)c5)C(=O)O4)CC3)c2n1 [Example 29, (R)-3-(3,4-Difluoro-phenyl)-5-[4-(6-methoxy-[1,5]naphthyridin-4-yl)-piperazin-1-ylmethyl]-oxazolidin-2-one] | ≤ 0.031 |  |

Other lines, results leading:

| MIC [µg/mL] | MIC S aureus A798 [µg/mL] | Compound |
| --- | --- | --- |
| ≤ 0.031 |  | COc1ccc2cccc(N3CC(CNC[C@@H]4CN(c5ccc6c(c5)NC(=O)CS6)C(=O)O4)C3)c2n1 [Example 162, 6-[(R)-5-({[1-(2-Methoxy-quinolin-8-yl)-azetidin-3-ylmethyl]-amino}-methyl)-2-oxo-oxazolidin-3-yl]-4H-benzo[1,4]thiazin-3-one] |
| 0.5 (≈ 0.96 µM) |  | COc1ccc2nccc(N3CCN(C[C@@H]4CN(c5ccc6c(c5)NC(=O)CS6)C(=O)O4)CC3=O)c2n1 [Example 101, 6-{(R)-5-[4-(6-Methoxy-[1,5]naphthyridin-4-yl)-3-oxo-piperazin-1-ylmethyl]-2-oxo-oxazolidin-3-yl}-4H-benzo[1,4]thiazin-3-one] |
| ≤ 0.031 |  | CCOC(=O)[C@@H]1CN(c2ccnc3ccc(OC)nc23)C[C@H]1NC[C@H]1CN(c2ccc3c(c2)NC(=O)CS3)C(=O)O1 (relative stereo) [Example 73, (3R*,4S*)-1-(6-Methoxy-[1,5]naphthyridin-4-yl)-4-{[(S)-2-oxo-3-(3-oxo-3,4-dihydro-2H-benzo[1,4]thiazin-6-yl)-oxazolidin-5-ylmethyl]amino}-pyrrolidine-3-carboxylic acid ethyl ester] |
| ≤ 0.031 |  | COc1ccc2nccc(N3CCCN(C[C@@H]4CN(c5ccc6c(c5)NC(=O)CS6)C(=O)O4)CC3)c2n1 [Example 106, 6-{(R)-5-[4-(6-Methoxy-[1,5]naphthyridin-4-yl)-[1,4]diazepan-1-ylmethyl]-2-oxo-oxazolidin-3-yl}-4H-benzo[1,4]thiazin-3-one] |
|  | 0.125 (≈ 0.27 µM) | COc1ccc2nccc(N3CC4C(C3)C4NC[C@@H]3CN(c4ccc(C)c(F)c4)C(=O)O3)c2n1 (stereo partly drawn) [Example 88, (R)-3-(3-Fluoro-4-methyl-phenyl)-5-{[(1a,5a,6a)-3-(6-methoxy-[1,5]naphthyridin-4-yl)-3-aza-bicyclo[3.1.0]hex-6-ylamino]-methyl}-oxazolidin-2-one] |
| ≤ 0.031 |  | COc1ccc2nccc(N3CCC(CNC(=O)[C@@H]4CN(c5ccc(C)c(F)c5)C(=O)O4)C3)c2n1 (mixture of isomers) [Example 82, (S)-3-(3-Fluoro-4-methyl-phenyl)-2-oxo-oxazolidine-5-carboxylic acid [(RS)-1-(6-methoxy-[1,5]naphthyridin-4-yl)-pyrrolidin-3-ylmethyl]-amide] |
| ≤ 0.031 |  | O=C1CSc2ccc(N3C[C@@H](CNC4CN(c5ccnc6ccc(F)cc56)C4)OC3=O)cc2N1 [Example 160, 6-((R)-5-{[1-(6-Fluoro-quinolin-4-yl)-azetidin-3-ylamino]-methyl}-2-oxo-oxazolidin-3-yl)-4H-benzo[1,4]thiazin-3-one] |
| 0.063 (≈ 0.14 µM) |  | COc1ccc2nccc(N3CC[C@H](NC[C@@H]4CN(c5ccc(C)c(F)c5)C(=O)O4)C3)c2n1 [Example 67, (R)-3-(3-Fluoro-4-methyl-phenyl)-5-{[(S)-1-(6-methoxy-[1,5]naphthyridin-4-yl)-pyrrolidin-3-ylamino]-methyl}-oxazolidin-2-one] |
| ≤ 0.031 |  | COc1ccc2nccc(N3CCC(NC[C@@H]4CN(c5ccc6c(c5)NC(=O)CO6)C(=O)O4)CC3)c2n1 [Example 120, 6-((R)-5-{[1-(6-Methoxy-[1,5]naphthyridin-4-yl)-piperidin-4-ylamino]-methyl}-2-oxo-oxazolidin-3-yl)-4H-benzo[1,4]oxazin-3-one] |
| ≤ 0.031 |  | COc1ccc2nccc(N3C[C@H](NC[C@@H]4CN(c5ccc6c(c5)NC(=O)CS6)C(=O)O4)[C@@H](OC)C3)c2n1 [Example 182, 6-((R)-5-{[(3S,4S)-4-Methoxy-1-(6-methoxy-[1,5]naphthyridin-4-yl)-pyrrolidin-3-ylamino]-methyl}-2-oxo-oxazolidin-3-yl)-4H-benzo[1,4]thiazin-3-one] |
| ≤ 0.031 |  | COc1ccc2nccc(N3CC[C@@H](CNC[C@@H]4CN(c5ccc6c(c5)NC(=O)CO6)C(=O)O4)C3)c2n1 [Example 168, 6-[(R)-5-({[(S)-1-(6-Methoxy-[1,5]naphthyridin-4-yl)-pyrrolidin-3-ylmethyl]-amino}-methyl)-2-oxo-oxazolidin-3-yl]-4H-benzo[1,4]oxazin-3-one] |
| ≤ 0.031 |  | COc1ccc2nccc(N3CCC(NC[C@H]4CN(c5ccc6c(c5)NC(=O)CS6)C(=O)O4)CC3)c2n1 [Example 165, 6-((S)-5-{[1-(6-Methoxy-[1,5]naphthyridin-4-yl)-piperidin-4-ylamino]-methyl}-2-oxo-oxazolidin-3-yl)-4H-benzo[1,4]thiazin-3-one] |
| ≤ 0.031 |  | COc1ccc2nccc(N3CCN(C[C@@H]4CN(c5ccc6c(c5)NC(=O)CO6)C(=O)O4)CC3)c2n1 [Example 96, 6-{(R)-5-[4-(6-Methoxy-[1,5]naphthyridin-4-yl)-piperazin-1-ylmethyl]-2-oxo-oxazolidin-3-yl}-4H-benzo[1,4]oxazin-3-one] |
| ≤ 0.031 |  | COc1ccc2nccc(N3CCC(C(=O)NC[C@@H]4CN(c5ccc(C)c(F)c5)C(=O)O4)C3)c2n1 (mixture of isomers) [Example 84, (RS)-1-(6-Methoxy-[1,5]naphthyridin-4-yl)-pyrrolidine-3-carboxylic acid [(R)-3-(3-fluoro-4-methyl-phenyl)-2-oxo-oxazolidin-5-ylmethyl]-amide] |
| 0.063 (≈ 0.14 µM) |  | COc1ccc2nccc(N3CC[C@@H](NC[C@@H]4CN(c5ccc(C)c(F)c5)C(=O)O4)C3)c2n1 [Example 68, (R)-3-(3-Fluoro-4-methyl-phenyl)-5-{[(R)-1-(6-methoxy-[1,5]naphthyridin-4-yl)-pyrrolidin-3-ylamino]-methyl}-oxazolidin-2-one] |
